Assay results taken from patent US20240018161A1, “MODULATORS OF CYSTIC FIBROSIS TRANSMEMBRANE CONDUCTANCE REGULATOR” (VERTEX PHARMACEUTICALS INCORPORATED, priority 2020, published 2024).
Where two headings read alike, the source gives them in different places.

Experiments:
[1] = target: CFTR-mediated chloride transport in human intestinal epithelial enteroid cells (Homo sapiens, UniProt P13569); experiment: Membrane potential dye, Enteroid Assay A; format: cell-based; conditions: for EC50: read-out: Ent. A EC50
Outline: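 Membrane potential dye (20 μM methyl oxonol, with 30 μM CaCCinh-A01 and 30 μM Chicago Sky Blue) loaded 25 min at room temperature into ROCK-inhibitor-seeded human enteroid cells. Chloride-free stimulation buffer triggered transport, followed by 15 min fluorescence. % Activity relative to 3 μM/3 μM/300 nM triple-combination control.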

[2] = enteroid cells incubated with test compound 18-24 hours, acute 10 μM forskolin and 300 nM N-[2,4-bis(1,1-dimethylethyl)-5-hydroxyphenyl]-1,4-dihydro-4-oxoquinoline-3-carboxamide
[3] = percentage of chloride transport of triple combination control (3 μM N-[(6-amino-2-pyridyl)sulfonyl]-6-(3-fluoro-5-isobutoxy-phenyl)-2-[(4S)-2,2,4-trimethylpyrrolidin-1-yl]pyridine-3-carboxamide based)
[4] = from Cc1cccc(C)c1-c1cc(Cl)nc(NS(=O)(=O)c2cccc(C(=O)N3CCN(C(C)C(C)(C)C)C[C@@H](O)C3)c2)n1, snar bond, 13-membered ring, NaH, DMF, 31.4 mM, 0.0 °C, 7.0 h
[5] = from Cc1cccc(C)c1-c1cc(OCC2c3ccc(C(C)(C)C)cc3CNC2C)nc(NS(=O)(=O)c2cccc(C(=O)O)c2)n1, amide bond, 14-membered ring, HATU/TEA, DMF, 44.8 mM, 50.0 °C, 0.5 h, 2 steps

Chain of CFTR-mediated chloride transport in human intestinal epithelial enteroid cells (P13569 with tags, fused parts or gaps DEL508-508): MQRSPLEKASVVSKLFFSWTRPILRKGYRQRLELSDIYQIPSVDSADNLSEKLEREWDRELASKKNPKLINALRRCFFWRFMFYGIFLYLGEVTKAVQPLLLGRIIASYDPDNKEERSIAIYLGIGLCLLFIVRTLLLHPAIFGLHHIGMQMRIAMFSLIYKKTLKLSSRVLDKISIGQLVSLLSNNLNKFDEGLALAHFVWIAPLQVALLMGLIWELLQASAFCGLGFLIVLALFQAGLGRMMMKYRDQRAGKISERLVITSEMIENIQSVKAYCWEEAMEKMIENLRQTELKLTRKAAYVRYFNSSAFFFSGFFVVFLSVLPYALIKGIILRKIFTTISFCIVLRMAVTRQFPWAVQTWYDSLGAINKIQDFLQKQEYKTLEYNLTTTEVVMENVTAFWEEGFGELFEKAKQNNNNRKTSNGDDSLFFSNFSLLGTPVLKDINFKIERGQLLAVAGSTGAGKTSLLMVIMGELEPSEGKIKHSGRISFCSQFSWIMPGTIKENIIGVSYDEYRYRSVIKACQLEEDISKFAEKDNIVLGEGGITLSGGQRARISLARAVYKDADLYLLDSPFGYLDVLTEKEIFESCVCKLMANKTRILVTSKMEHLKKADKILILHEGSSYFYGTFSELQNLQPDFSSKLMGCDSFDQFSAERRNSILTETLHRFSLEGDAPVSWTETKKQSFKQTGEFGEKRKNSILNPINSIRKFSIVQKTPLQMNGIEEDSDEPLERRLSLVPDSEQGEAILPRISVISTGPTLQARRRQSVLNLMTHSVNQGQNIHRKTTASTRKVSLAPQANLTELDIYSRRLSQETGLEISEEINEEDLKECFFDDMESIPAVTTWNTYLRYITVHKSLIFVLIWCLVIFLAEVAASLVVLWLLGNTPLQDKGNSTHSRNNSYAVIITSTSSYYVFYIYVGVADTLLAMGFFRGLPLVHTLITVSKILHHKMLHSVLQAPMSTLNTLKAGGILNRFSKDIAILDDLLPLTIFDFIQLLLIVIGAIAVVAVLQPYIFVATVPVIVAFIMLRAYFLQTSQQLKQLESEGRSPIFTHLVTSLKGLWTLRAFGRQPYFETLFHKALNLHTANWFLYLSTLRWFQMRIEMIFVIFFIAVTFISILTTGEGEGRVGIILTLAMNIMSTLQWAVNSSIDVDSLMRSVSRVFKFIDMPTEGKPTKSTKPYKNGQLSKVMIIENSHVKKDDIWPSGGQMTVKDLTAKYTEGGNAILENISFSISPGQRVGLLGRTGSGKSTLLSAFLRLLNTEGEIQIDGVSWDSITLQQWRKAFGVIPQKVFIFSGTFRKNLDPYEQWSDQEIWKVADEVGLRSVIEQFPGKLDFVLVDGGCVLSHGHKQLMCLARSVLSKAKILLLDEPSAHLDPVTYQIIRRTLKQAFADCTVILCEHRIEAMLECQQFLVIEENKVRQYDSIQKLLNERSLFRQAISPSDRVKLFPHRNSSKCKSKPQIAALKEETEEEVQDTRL

Cc1cccc(C)c1-c1cc2nc(n1)NS(=O)(=O)c1cccc(c1)C(=O)N1Cc3cccnc3C(C1)O2 (single isomer, unassigned) [Compound 195, 12-(2,6-dimethylphenyl)-15-oxa-8λ^6-thia-1,9,11,18,25-pentaazapentacyclo[14.7.1.13,7.110,14.017,22]hexacosa-3,5,7(26),10(25),11,13,17,19,21-nonaene-2,8,8-trione]
ring closure, yield after HPLC (from Cc1cccc(C)c1-c1cc(OC2CNCc3cccnc32)nc(NS(=O)(=O)c2cccc(C(=O)O)c2)n1, amide bond, 13-membered ring, HATU/DIEA, DMF, 8.0 mM, 1.0 h): 76% | EC50 [1, 2]: 3 to 30 µM | Ent. A Max Activity (%) [1, 3]: ++ (++ is 30-60%)

Cc1cccc(C)c1-c1cc2nc(n1)NS(=O)(=O)c1cccc(c1)C(=O)N1CC(CC(c3ccccc3)C1)O2 (single isomer, unassigned; diastereomer 1)
ring closure, yield after HPLC (from 3-[[4-(2,6-dimethylphenyl)-6-[(5-phenyl-3-piperidyl)oxy]pyrimidin-2-yl]sulfamoyl]benzoic acid (hydrochloride salt), diastereomer 1, amide bond, 13-membered ring, HATU/DIEA, DMF, 37.8 mM, 25.0 °C, 3 steps): 1%

Cc1cccc(C)c1-c1cc2nc(n1)NS(=O)(=O)c1cccc(c1)C(=O)N1CC(O2)C2CCCN(C)C2C1 (single isomer, unassigned; diastereomer 1)
ring closure, yield after HPLC (from Cc1cccc(C)c1-c1cc(OC2CNCC3C2CCCN3C)nc(NS(=O)(=O)c2cccc(C(=O)O)c2)n1, amide bond, 13-membered ring, HATU/DIEA, DMF, 20.5 mM, 25.0 °C, 1.0 h): 54%

Cc1cccc(C)c1-c1cc2nc(n1)NS(=O)(=O)c1cccc(c1)C(=O)N1CCN(C(C)C(C)(C)C)C[C@H](C1)O2 (single isomer, unassigned; diastereomer 1)
ring closure, yield after HPLC [4]: 36%

Cc1cccc(C)c1-c1cc2nc(n1)NS(=O)(=O)c1cccc(c1)C(=O)N1CC(CC(c3ccccc3)C1)O2 (single isomer, unassigned; diastereomer 2)
ring closure, yield after HPLC (from 3-[[4-(2,6-dimethylphenyl)-6-[(5-phenyl-3-piperidyl)oxy]pyrimidin-2-yl]sulfamoyl]benzoic acid (hydrochloride salt), diastereomer 2, amide bond, 13-membered ring, HATU/DIEA, DMF, 61.9 mM, 25.0 °C, 3 steps): 31%

Cc1cccc(C)c1-c1cc2nc(n1)NS(=O)(=O)c1cccc(c1)C(=O)N1CCN(C(=O)OCc3ccccc3)CC(O2)[C@H]1C (single isomer, unassigned; diastereomer 2)
ring closure, yield after HPLC (from Cc1cccc(C)c1-c1cc(Cl)nc(NS(=O)(=O)c2cccc(C(=O)N3CCN(C(=O)OCc4ccccc4)CC(O)[C@H]3C)c2)n1, snar bond, 13-membered ring, NaH, DMF, 30.1 mM, 0.0 °C, 1.5 h): 7%

Cc1cccc(C)c1-c1cc2nc(n1)NS(=O)(=O)c1cccc(c1)C(=O)N1CCN(C(C)C(C)(C)C)C[C@H](C1)O2 (single isomer, unassigned; diastereomer 2)
ring closure, yield after HPLC [4]: 33%

Cc1cccc(C)c1-c1cc2nc(n1)NS(=O)(=O)c1cccc(c1)C(=O)N1Cc3cc(C(C)(C)C)ccc3C(CO2)C1C (single isomer, unassigned; enantiomer 1)
ring closure, yield after HPLC [5]: 2%

Cc1cccc(C)c1-c1cc2nc(n1)NS(=O)(=O)c1cccc(c1)C(=O)N1Cc3cc(C(C)(C)C)ccc3C(CO2)C1C (single isomer, unassigned; enantiomer 2)
ring closure, yield after HPLC [5]: 1%

Cc1cccc(C)c1-c1cc2nc(n1)NS(=O)(=O)c1cccc(n1)C(=O)N1CCN(CCC(C)(C)C)CC(C1)O2 (stereo not shown) [Compound 70, 18-(3,3-Dimethylbutyl)-12-(2,6-dimethylphenyl)-15-oxa-8λ^6-thia-1,9,11,18,22,23-hexaazatetracyclo[14.4.1.13,7.110,14]tricosa-3,5,7(23),10,12,14(22)-hexaene-2,8,8-trione]
ring closure, yield after HPLC (from Cc1cccc(C)c1-c1cc(OC2CNCCN(CCC(C)(C)C)C2)nc(NS(=O)(=O)c2cccc(C(=O)O)n2)n1, amide bond, 13-membered ring, HATU/DIEA, DMF, 78.0 mM, 25.0 °C, 0.5 h, 2 steps): 1% | Ent. A Max Activity (%) ([1]; Enteroid Assay A): + (+ is <30%)

Cc1cccc(C)c1-c1cc2nc(n1)NS(=O)(=O)c1cccc(c1)C(=O)N1CCN(C(C)(C)C)C[C@H](C1)O2 [Compound 71, (16R)-18-tert-Butyl-12-(2,6-dimethylphenyl)-15-oxa-8λ^6-thia-1,9,11,18,22-pentaazatetracyclo[14.4.1.13,7.110,14]tricosa-3(23),4,6,10(22),11,13-hexaene-2,8,8-trione]
ring closure, yield after HPLC (from Cc1cccc(C)c1-c1cc(Cl)nc(NS(=O)(=O)c2cccc(C(=O)N3CCN(C(C)(C)C)C[C@@H](O)C3)c2)n1, snar bond, 13-membered ring, NaH, DMF, 33.9 mM, 25.0 °C, 4.17 h): 37% | Ent. A Max Activity (%) ([1]; Enteroid Assay A): +++ (+++ is >600%) | EC50 ([1]; Enteroid Assay A): < 1 µM

Cc1cccc(C)c1-c1cc2nc(n1)NS(=O)(=O)c1cccc(c1)C(=O)N1CC(CN(Cc3ccccc3)[C@@H](CC(C)C)C1)O2 (stereo partly drawn) [Compound 107, (19S)-18-Benzyl-12-(2,6-dimethylphenyl)-19-(2-methylpropyl)-15-oxa-8λ^6-thia-1,9,11,18,22-pentaazatetracyclo[14.4.1.13,7.110,14]tricosa-3(23),4,6,10(22),11,13-hexaene-2,8,8-trione]
ring closure, yield after HPLC (from Cc1cccc(C)c1-c1cc(Cl)nc(NS(=O)(=O)c2cccc(C(=O)N3CC(O)CN(Cc4ccccc4)[C@@H](CC(C)C)C3)c2)n1, snar bond, 13-membered ring, NaH, DMF, 29.1 mM, 0.0 °C, 4.0 h): 3% | Ent. A Max Activity (%) ([1]; Enteroid Assay A): +++ (+++ is >600%) | EC50 ([1]; Enteroid Assay A): < 1 µM

Cc1cccc(C)c1-c1cc2nc(n1)NS(=O)(=O)c1cccc(c1)NC(=O)CN1CCCC(C1)O2 (stereo not shown) [Compound 160, 5-(2,6-Dimethylphenyl)-2-oxa-9λ^6-thia-6,8,15,18,24-pentaazatetracyclo[16.3.1.13,7.110,14]tetracosa-3(24),4,6,10,12,14(23)-hexaene-9,9,16-trione]
ring closure, yield after HPLC (from Cc1cccc(C)c1-c1cc(OC2CCCN(CC(=O)Nc3cccc(S(N)(=O)=O)c3)C2)nc(Cl)n1, cn_pd bond, 15-membered ring, Pd(OAc)2/Xantphos/Cs2CO3, dioxane, 20.1 mM, 100.0 °C, 16.0 h): 17% | EC50 [1, 2]: 1 to 3 µM | Ent. A Max Activity (%) [1, 3]: + (+ is <300%)

Cc1cccc(C)c1-c1cc2nc(n1)NS(=O)(=O)c1cccc(c1)C(=O)N1CCN(CCC3(C(F)(F)F)CC3)CC1CO2 (stereo not shown) [Compound 170, 13-(2,6-Dimethylphenyl)-6-{2-[1-(trifluoromethyl)cyclopropyl]ethyl}-10-oxa-17λ^6-thia-3,6,14,16,23-pentaazatetracyclo[16.3.1.111,15.03,8]tricosa-1(22),11,13,15(23),18,20-hexaene-2,17,17-trione]
ring closure, yield after HPLC (from Cc1cccc(C)c1-c1cc(OCC2CN(CCC3(C(F)(F)F)CC3)CCN2)nc(NS(=O)(=O)c2cccc(C(=O)O)c2)n1, amide bond, 13-membered ring, HATU/DIEA, DMF, 18.7 mM, 25.0 °C, 1.0 h, 3 steps): 14% | EC50 [1, 2]: < 1 µM | Ent. A Max Activity (%) [1, 3]: ++ (++ is 30-60%)

Cc1cccc(C)c1-c1cc2nc(n1)NS(=O)(=O)c1cccc(c1)C(=O)N1CCN(C(=O)OC(C)(C)C)CC1C(C)O2 (stereo not shown) [Compound 173, tert-Butyl 13-(2,6-dimethylphenyl)-9-methyl-2,17,17-trioxo-10-oxa-17λ^6-thia-3,6,14,16,23-pentaazatetracyclo[16.3.1.111,15.03,8]tricosa-1(22),11,13,15(23),18,20-hexaene-6-carboxylate]
ring closure, yield after HPLC (from Cc1cccc(C)c1-c1cc(OC(C)C2CN(C(=O)OC(C)(C)C)CCN2)nc(NS(=O)(=O)c2cccc(C(=O)O)c2)n1, amide bond, 13-membered ring, HATU/DIEA, DMF, 10.9 mM, 25.0 °C, 0.5 h): 19% | EC50 [1, 2]: 1 to 3 µM | Ent. A Max Activity (%) [1, 3]: ++ (++ is 30-60%)

Cc1cccc(C)c1-c1cc2nc(n1)NS(=O)(=O)c1cccc(c1)C(=O)N1CCN(C(=O)OC(C)(C)C)CC1C(Cc1ccccc1)O2 (stereo not shown) [Compound 175, tert-butyl 9-benzyl-13-(2,6-dimethylphenyl)-2,17,17-trioxo-10-oxa-17λ^6-thia-3,6,14,16,23-pentaazatetracyclo[16.3.1.111,15.03,8]tricosa-1(22),11,13,15(23),18,20-hexaene-6-carboxylate]
ring closure, yield after HPLC (from Cc1cccc(C)c1-c1cc(OC(Cc2ccccc2)C2CN(C(=O)OC(C)(C)C)CCN2)nc(NS(=O)(=O)c2cccc(C(=O)O)c2)n1, amide bond, 13-membered ring, HATU/DIEA, DMF, 10.8 mM, 25.0 °C, 0.083 h): 55% | Ent. A Max Activity (%) ([1]; Enteroid Assay A): ++ (++ is 30-60%) | EC50 ([1]; Enteroid Assay A): < 1 µM

Cc1cccc(C)c1-c1cc2nc(n1)NS(=O)(=O)c1cccc(c1)C(=O)N1Cc3cc(C(C)(C)C)ccc3[C@@H](O2)[C@H]1CC(C)(C)C [Compound 189, (16R,24R)-20-tert-butyl-12-(2,6-dimethylphenyl)-24-(2,2-dimethylpropyl)-15-oxa-8λ^6-thia-1,9,11,25-tetraazapentacyclo[14.7.1.13,7.110,14.017,22]hexacosa-3(26),4,6,10(25),11,13,17,19,21-nonaene-2,8,8-trione]
ring closure, yield after HPLC (from Cc1cccc(C)c1-c1cc(O[C@@H]2c3ccc(C(C)(C)C)cc3CN[C@@H]2CC(C)(C)C)nc(NS(=O)(=O)c2cccc(C(=O)O)c2)n1, amide bond, 13-membered ring, HATU/NaOtBu, DMF/THF, 0.25 h, 2 steps): 0.35% | EC50 ([1]; Enteroid Assay A): < 1 µM

Cc1cccc(C)c1-c1cc2nc(n1)NS(=O)(=O)c1cccc(c1)C(=O)N1CC[C@H](C1)O2 [Compound 214, (3R)-17-(2,6-Dimethylphenyl)-2-oxa-13λ^6-thia-6,14,16,19-tetraazatetracyclo[13.3.1.13,6.18,12]henicosa-1(19),8(20),9,11,15,17-hexaene-7,13,13-trione]
ring closure, yield after HPLC (from Cc1cccc(C)c1-c1cc(O[C@@H]2CCNC2)nc(NS(=O)(=O)c2cccc(C(=O)O)c2)n1, amide bond, 13-membered ring, HATU/TEA, DMF, 56.8 mM, 25.0 °C, 1.0 h): 17%
